According to PMC11551755, “Structure-based discovery of first inhibitors targeting the helicase activity of human PIF1” (Nucleic Acids Research, 2024):
Like-named read-outs stand apart in the source and are kept apart here.

Biological target: T1, hPIF1HD (Homo sapiens, UniProt Q9H611)
T1 construct: the hPIF1HD construct starts at residue Gln 206 and ends at Leu 620; hexa-histidine tag (N, cleaved yes); made in house; host or cells: ArcticExpress BL21(DE3) E. coli (Agilent Technologies)
T1 sequence (Q9H611 206-620): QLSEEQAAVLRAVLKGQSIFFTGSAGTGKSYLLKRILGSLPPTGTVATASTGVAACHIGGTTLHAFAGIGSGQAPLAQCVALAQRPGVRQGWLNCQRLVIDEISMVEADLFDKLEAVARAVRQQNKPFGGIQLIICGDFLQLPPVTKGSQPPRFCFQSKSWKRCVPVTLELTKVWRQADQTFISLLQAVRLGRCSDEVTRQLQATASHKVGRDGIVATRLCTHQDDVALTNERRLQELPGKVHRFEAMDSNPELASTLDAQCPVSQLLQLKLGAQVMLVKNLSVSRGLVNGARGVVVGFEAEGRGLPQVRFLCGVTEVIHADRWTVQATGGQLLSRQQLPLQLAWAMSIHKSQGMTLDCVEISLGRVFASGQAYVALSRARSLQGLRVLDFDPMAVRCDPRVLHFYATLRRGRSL
Assay: ssDNA d(T)55 binding assay (EMSA), wild-type hPIF1HD
Conditions: 5 mM AMP-PNP, read-out: IC50 for inhibition of hPIF1HD ssDNA binding, WT
Description: DNA binding of hPIF1HD was assayed using a ^32P-5′ end-labelled oligo d(T)55 substrate (0.25 nM), under the same buffer conditions described for helicase assays, but with AMP-PNP instead of ATP. Reaction products were resolved on 5% poly-acrylamide gels (29:1 acrylamide:bis-acrylamide) using 0.25× TBE running buffer ([19],[28]). Gels were processed and reaction products quantified by phosphorimaging and IC50 values determined as described above.
In the hPIF1HD/AMP-PNP/1 structure, the compound 1 binding site is largely between domains 2A and 2B and is absent in the modelled hPIF1HD-ssDNA complex (Figure 2), due to the large relative movement of domain 2B required for ssDNA binding, with or without bound nucleotide ([19],[34],[35],[47]). […] To test this, we assayed binding to a radiolabelled oligo d(T)55 substrate under helicase reaction conditions, with AMP-PNP instead of ATP, in the presence of the same SMIs selected for helicase IC50 analysis (Table 1). hPIF1HD was used rather than FLhPIF1 to eliminate the non-specific DNA binding activity of the N-terminal domain ([27],[29]), and complexes were resolved by gel electrophoresis (electrophoretic mobility shift assay, EMSA). […] With an increasing concentration of compound 1C (or other analogues of 1) or a derivative, progressive inhibition of ssDNA binding was observed, allowing determination of IC50 values for most compounds tested. It was not possible to obtain data for compounds 3, 7, 8 and 9 due to retention of substrate in the gel wells, possibly due to low solubility of the compounds (Supplementary Figure S10).
Figure 4. Inhibition of hPIF1HD ssDNA binding by compound 1 and derivatives. Binding reactions were assembled under helicase reaction conditions but with 0.25 nM radiolabelled oligo d(T)55, 2 nM hPIF1HD, 5 mM AMP-PNP and 0.0078–2 mM SMI. Products were resolved by EMSA for quantification and IC50 determination (n = 3 repeats). Bound ssDNA was calculated as the sum of the major and minor species, interpreted as one or two bound hPIF1HD molecules respectively. See also Supplementary Figure S10. IC50 values are given along with those determined for hPIF1HD variants V258A and V258L (see Supplementary Figure S12). TEXT PRINTED IN THE PICTURE: 1C: IC50 (μM): N.D. | 1E: IC50 (μM): N.D. | 2: IC50 (μM): WT: 224 ± 86; IC50 (μM): V258A: 103 ± 31; IC50 (μM): V258L: 304 ± 88 | 4: IC50 (μM): N.D. | 5: IC50 (μM): WT: 198 ± 54; IC50 (μM): V258A: 79.2 ± 27; IC50 (μM): V258L: 414 ± 45 | 6: IC50 (μM): WT: 722 ± 194; IC50 (μM): V258A: 295 ± 116; IC50 (μM): V258L: 1010 ± 282 | 10: IC50 (μM): WT: 224 ± 59; IC50 (μM): V258A: 152 ± 42; IC50 (μM): V258L: 378 ± 99 | 11: IC50 (μM): WT: 284 ± 110; IC50 (μM): V258A: 151 ± 51; IC50 (μM): V258L: 551 ± 215

[1] = 0.25 nM d(T)55, 2 nM hPIF1HD, 0.0078–2 mM SMI, n = 3

Row | SMILES | IC50 [1] [µM] | IC50 (as printed in Supplementary Figure 12 legend, 2 nM hPIF1HD) [µM]
1 | CC(=O)Nc1ccc(-c2csc(N)n2)cc1-c1ccc(C)cc1 [Compound 10] | 224 ± 59 | –
2 | CC(=O)c1ccc(-c2csc(N)n2)cc1 [Compound 2] | – | 224 ± 86
3 | CC(=O)Nc1ccc(-c2csc(N)n2)cc1C1=CCNCC1 [Compound 11] | 284 ± 110 | –
4 | N#Cc1ccc(-c2csc(N)n2)cc1 [Compound 5] | 198 ± 54 | –
5 | Nc1nc(-c2ccc(C(=O)c3ccccc3)cc2)cs1 [Compound 6] | 722 ± 194 | –
